Reference: patent US11046640B2, “Water-soluble L-DOPA esters” (BERLIREM GMBH, priority 2015, dated 2021)
Converted amounts (≈) assume the structure as drawn.

Tests used:
[1] = Hydrolytic stability at selected pH values (TLC); type: physicochemical
Protocol: Each 20 mg of lyophilized L-DOPA glycerol ester hydrochloride as well as L-DOPA ethyl ester hydrochloride were dissolved in 250 μl of buffer solution which was de-gassed for 5 min under argon.
The ester solutions were stored at 32° C.

[2] = biological target: T1, carboxylesterase 1 (isoform c, human, recombinant) (Homo sapiens, UniProt P23141); assay: Enzymatic ester cleavage using isolated carboxylesterase; type: in vitro ADME
T1 construct: purchased Sigma-Aldrich, Munich, Germany
T1 sequence (P23141 18-566 isoform P23141-3 limits assumed): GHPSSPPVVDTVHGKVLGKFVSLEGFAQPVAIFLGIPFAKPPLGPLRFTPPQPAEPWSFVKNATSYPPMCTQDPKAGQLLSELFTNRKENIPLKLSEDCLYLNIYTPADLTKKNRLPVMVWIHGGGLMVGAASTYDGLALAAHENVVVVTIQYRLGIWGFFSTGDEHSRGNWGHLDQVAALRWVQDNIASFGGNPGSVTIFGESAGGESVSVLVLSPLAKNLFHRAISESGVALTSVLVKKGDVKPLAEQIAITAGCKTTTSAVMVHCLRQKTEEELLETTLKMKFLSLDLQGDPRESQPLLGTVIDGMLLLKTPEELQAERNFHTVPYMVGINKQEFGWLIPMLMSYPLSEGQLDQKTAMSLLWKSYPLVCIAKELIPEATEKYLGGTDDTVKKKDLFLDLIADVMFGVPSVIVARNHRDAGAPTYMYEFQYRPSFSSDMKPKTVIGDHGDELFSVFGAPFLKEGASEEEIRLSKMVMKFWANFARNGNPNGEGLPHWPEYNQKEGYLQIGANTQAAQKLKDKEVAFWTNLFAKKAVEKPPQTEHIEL
Protocol: Enzymatic Ester Cleavage Using Isolated Carboxylesterase
Afterwards 5 μl carboxylestaerase 1 (isoform c, human, recombinant (Sigma-Aldrich, Munich, Germany)) with activity 1000 units/mg protein (concentration: 5 mg/ml) was added. The mixture was incubated for 60 and 180 min at 37° C.

Solubility in water = type: physicochemical; conditions: for solubility in water: hydrochloride salt; for Aqueous solubility: water
Protocol: 40 mg of lyophilized L-DOPA glycerol ester hydrochloride was dissolved in 20 μl of water resulting in a viscous liquid. The aqueous solubility of L-DOPA glycerol ester hydrochloride is ≥2 g/ml.

[3] = cited from earlier work

## CCOC(=O)[C@@H](N)Cc1ccc(O)c(O)c1.Cl [Ethyl-Dopa•HCl, L-DOPA ethyl ester hydrochloride]
[1]
  Stability (days at pH 7.4, Soerensen buffer): 2 days
[2]
  Time to complete hydrolysis (min) (with carboxylesterase): 60 min
Solubility in water
  solubility in water: up to 400 mg/ml
  Aqueous solubility: 400 mg/mL

## Cl.N[C@@H](Cc1ccc(O)c(O)c1)C(=O)OCC(O)CO (stereo partly drawn) [Gly-Dopa•HCl, L-DOPA glycerol ester hydrochloride]
[1]; all pH values (1, 4.5, 7.4, 8.5), 32° C., over 14 days
  hydrolytic stability: stable
[1]
  Stability (days at pH 7.4, Soerensen buffer): 14 days
[2]
  Time to complete hydrolysis (min) (with carboxylesterase): >60 min
[2]; carboxylesterase 1, 37° C., after 180 min
  ester remaining: only traces
Solubility in water; hydrochloride
  Aqueous solubility: 2000 mg/mL
Solubility in water; listed as L-DOPA glycerol ester hydrochloride, hydrochloride
  Aqueous solubility: ≥ 2000 mg/mL

## CCOC(=O)[C@@H](N)Cc1ccc(O)c(O)c1 [L-DOPA ethyl ester]
[1]; pH 7.4, 32° C.
  time within which the ester is cleaved: ≤ 2 days
[1]; pH 8.5, 32° C.
  time within which the ester is cleaved: ≤ 2 days
[1]; pH=1, 32° C., over measured time period
  hydrolytic stability: stable
[1]; pH=4.5, 32° C.
  time within which the ester is cleaved: ≤ 14 days
[3]; at pH 8.2, free base, US 6,696,600 B2
  solubility: 52 mg/mL (≈ 231 mM)
[2]; carboxylesterase 1, 37° C., after 60 min
  ester cleavage: complete
Solubility in water
  solubility in water: 400 mg/mL

## N[C@@H](Cc1ccc(O)c(O)c1)C(=O)O [L-DOPA, L-3,4-Dihydroxyphenylalanin]
[3]; reported, Fernandez & Odin 2011
  water solubility: 20 mg/mL (≈ 101 mM)
